{"source": "patent US12350259B2", "about": "“Methods of treating migraine” (Allergan Pharmaceuticals International Limited, priority 2021, dated 2025)", "assay": "Food effect study (high-fat meal), atogepant IR tablet: plasma PK", "type": "in vivo, human", "details": "for AUC(0-inf) / AUC(0-t) / Cmax / Tmax / Vd/F: both sexes, human, plasma, oral, 60 mg; for Vd/F: read-out: Vz/F", "method": "A single-center, randomized, open-label, single-dose, 2-period cross-over study was conducted to evaluate the effect of a high-fat meal on the systemic exposure of atogepant following single-dose administration of an immediate release (IR) tablet in healthy adult participants. Secondary objectives were to evaluate the secondary PK parameters of atogepant following single-dose administration of an IR tablet formulation of atogepant in healthy participants under fasted and fed conditions; and to evaluate the safety and tolerability profiles of single-dose atogepant in healthy adult participants under fed and fasted conditions. […] Plasma samples were collected pre-dose and at predetermined time intervals up to 48 hours after dosing. Atogepant plasma concentrations were determined using a validated LC-MS/MS assay and the pharmacokinetic (PK) parameters were calculated using WinNonlin. A linear mixed-effects model with sequence, study intervention, and period as fixed effects, and participant nested within sequence as a random effect was used to compare the natural logarithm transformed values of atogepant PK parameters AUC0-t, AUC0-inf, and Cmax. Safety was monitored via ECGs, vital signs, clinical labs, and adverse events. […] Screening occurred within 21 days before dosing (Days −21 to −1). The study intervention period was scheduled for a total of 11 days (Days −1 to 10), and the follow-up visit occurred with serum chemistry on day 38 (±3), (30 [±3] days after the last dose on Day 8). PK blood samples for analysis of plasma atogepant concentrations were collected starting on Days 1 (period 1) and 8 (period 2); at 0 hour (predose) and 0.5, 1, 1.5, 2, 3, 4, 6, 8, 12, 16, 24, 36, and 48 hours postdose. • Linear mixed effects model with natural logarithm-transformed values of AUC0-t, AUC0-inf, and Cmax, as the dependent variable and terms for study intervention, sequence, and period as fixed independent variables and participant nested in sequence as a random effect.", "key": {"[1]": {"details": "Study Intervention A: 1 × 60 mg IR tablet, fed"}, "[2]": {"details": "Study Intervention B: 1 × 60 mg IR tablet, fasted"}}, "note": "Where two headings read alike, the source gives them in different places.", "data": [{"smiles": "C[C@@H]1[C@H](c2c(F)ccc(F)c2F)C[C@H](NC(=O)c2cnc3c(c2)C[C@@]2(C3)C(=O)Nc3ncccc32)C(=O)N1CC(F)(F)F", "note": "[atogepant, (3′S)-N-[(3S,5S,6R)-6-methyl-2-oxo-1-(2,2,2-trifluoroethyl)-5-(2,3,6-trifluorophenyl)piperidin-3-yl]-2′-oxo-1′,2′,5,7-tetrahydrospiro[cyclopenta[b]pyridine-6,3′-pyrrolo[2,3-b]pyridine]-3-carboxamide]", "values": [{"measurement": "CL/F", "setting": "[1]", "result": 26.10, "unit": "L/h"}, {"measurement": "Tlag (median)", "setting": "[1]", "result": 0, "unit": "h"}, {"measurement": "tt/2", "setting": "[1]", "result": 9.41, "unit": "h"}, {"measurement": "λz", "setting": "[1]", "result": 0.0840, "unit": "h⁻¹"}, {"measurement": "CL/F", "setting": "[2]", "result": 21.03, "unit": "L/h"}, {"measurement": "Tlag (median)", "setting": "[2]", "result": 0, "unit": "h"}, {"measurement": "tt/2", "setting": "[2]", "result": 9.71, "unit": "h"}, {"measurement": "λz", "setting": "[2]", "result": 0.0799, "unit": "h⁻¹"}, {"measurement": "AUC(0-inf)", "setting": "Fasted (Ref), read-out: AUC0-inf GLSM", "result": 3160, "unit": "ng·h/mL"}, {"measurement": "AUC(0-t)", "setting": "Fasted (Ref), read-out: AUC0-t GLSM", "result": 3130, "unit": "ng·h/mL"}, {"measurement": "Cmax", "setting": "Fasted (Ref), read-out: Cmax GLSM", "result": 677, "unit": "ng/mL"}, {"measurement": "Tmax", "setting": "Fasted (ref), read-out: Tmax Median", "result": 2.01, "unit": "h"}, {"measurement": "AUC(0-inf)", "setting": "Fed (Test), read-out: AUC0-inf GLSM", "result": 2610, "unit": "ng·h/mL"}, {"measurement": "AUC(0-t)", "setting": "Fed (Test), read-out: AUC0-t GLSM", "result": 2560, "unit": "ng·h/mL"}, {"measurement": "Cmax", "setting": "Fed (Test), read-out: Cmax GLSM", "result": 527, "unit": "ng/mL"}, {"measurement": "Tmax", "setting": "Fed (Test), read-out: Tmax Median", "result": 2.01, "unit": "h"}, {"measurement": "AUC(0-inf)", "setting": "Study Intervention A: 1 × 60 mg IR tablet, fed, read-out: AUC0-inf", "result": 3200, "unit": "ng·h/mL"}, {"measurement": "AUC(0-t)", "setting": "Study Intervention A: 1 × 60 mg IR tablet, fed, read-out: AUC0-t", "result": 3090, "unit": "ng·h/mL"}, {"measurement": "Cmax", "setting": "Study Intervention A: 1 × 60 mg IR tablet, fed, read-out: Cmax", "result": 594, "unit": "ng/mL"}, {"measurement": "Tmax", "setting": "Study Intervention A: 1 × 60 mg IR tablet, fed, read-out: Tmax (median)", "result": 2.01, "unit": "h"}, {"measurement": "Vd/F", "setting": "[1]", "result": 368, "unit": "L"}, {"measurement": "AUC(0-inf)", "setting": "Study Intervention B: 1 × 60 mg IR tablet, fasted, read-out: AUC0-inf", "result": 3490, "unit": "ng·h/mL"}, {"measurement": "AUC(0-t)", "setting": "Study Intervention B: 1 × 60 mg IR tablet, fasted, read-out: AUC0-t", "result": 3460, "unit": "ng·h/mL"}, {"measurement": "Cmax", "setting": "Study Intervention B: 1 × 60 mg IR tablet, fasted, read-out: Cmax", "result": 732, "unit": "ng/mL"}, {"measurement": "Tmax", "setting": "Study Intervention B: 1 × 60 mg IR tablet, fasted, read-out: Tmax (median)", "result": 2.01, "unit": "h"}, {"measurement": "Vd/F", "setting": "[2]", "result": 299, "unit": "L"}, {"measurement": "Tmax", "setting": "fed vs fasted, read-out: Tmax Median of Paired Differences (Test Minus Reference)", "result": 0.5, "unit": "h"}, {"measurement": "AUC0-inf Ratio of GLSMs Test/Ref", "setting": "fed vs fasted", "result": 82.53, "unit": "%"}, {"measurement": "AUC0-t Ratio of GLSMs Test/Ref", "setting": "fed vs fasted", "result": 81.70, "unit": "%"}, {"measurement": "Cmax Ratio of GLSMs Test/Ref", "setting": "fed vs fasted", "result": 77.90, "unit": "%"}, {"measurement": "effect on median time to maximum atogepant plasma concentration", "setting": "high-fat meal", "result": "no effect"}, {"measurement": "reduction of AUC", "setting": "high-fat meal (fed) vs fasted", "result": "approximately 18%"}]}]}
